Reference: patent publication US20250090622A1, “ANGIOTENSIN COMPOSITIONS AND METHODS RELATED THERETO” (LA JOLLA PHARMA, LLC, priority 2017, published 2025)
Read-outs that look alike come from different tables or passages of the source.

Assays:
[1] = tested on: sepsis-induced hypotension; conditions: porcine fecal peritonitis septic shock; hemodynamic effects similar to norepinephrine; cited from earlier work
blood pressure [2] = conditions: intravenous dosing, dogs; cited from earlier work
[3] = tested on: hypotension in distributive shock; experiment: clinical study of angiotensin II in treating hypotension in distributive shock; assay type: in vivo, human; conditions: 95% CI 4.76 to 13.3; P<0.001
Procedure: Vials containing 2 milliliters of 2.5 mg/mL (mg) angiotensin II in 0.9% saline and 25 mg/mL mannitol were evaluated in a clinical study of angiotensin II in treating hypotension in distributive shock (Khanna et al., N Engl J Med 2017; 377:419-430). Patients were currently on other vasopressors but still hypotensive (mean arterial pressure (MAP)[…]65 mmHg). Administration of angiotensin II was begun at a rate of 20 ng/kg/min, and titrated up or down to achieve and maintain an increased MAP of 10 mmHg above baseline or at least 75 mmHg. For the first 3 hours of treatment, the other vasopressors were held constant and the maximum dose allowed of angiotensin II was 200 ng/kg/min. At 3 hours and 15 minutes, all vasopressors could be titrated to maintain a MAP between 65-75 mmHg and an angiotensin II rate of 1.25-40 ng/kg/min. Angiotensin II could be administered for up to 7 days in this study. In this study, about 1 vial of drug (5 mg) was sufficient to treat each patient for a 24-hour period, and patients were on the treatment for an average of 2 days. Most patients required at least 1 mg of drug per day.
A total of 344 patients were assigned to one of the two regimens; 321 received a study intervention (163 received angiotensin II, and 158 received placebo) and were included in the analysis.

blood pressure [4] = conditions: intravenous dosing, rabbits; cited from earlier work
blood pressure [5] = conditions: intravenous dosing, rats; cited from earlier work

## CC[C@H](C)[C@H](NC(=O)[C@H](Cc1ccc(O)cc1)NC(=O)[C@@H](NC(=O)[C@H](CCCNC(=N)N)NC(=O)[C@@H](N)CC(=O)O)C(C)C)C(=O)N[C@@H](Cc1c[nH]cn1)C(=O)N1CCC[C@H]1C(=O)N[C@@H](Cc1ccccc1)C(=O)O [angiotensin II, H-Asp-Arg-Val-Try-Ile-His-Pro-Phe-OH]
[1]
  effect on sepsis-induced hypotension: reversed sepsis-induced hypotension
Blood pressure [2]
  effect on blood pressure: increase in blood pressure
[3]
  odds ratio for primary end point, angiotensin II vs placebo: 7.95
Blood pressure [4]
  effect on blood pressure: increase in blood pressure
Blood pressure [5]
  effect on blood pressure: increase in blood pressure
